According to US9682049B2, “Non-racemic mixtures of various ratios of D- and L-methadone and methods of treating pain using the same” (priority 2015, dated 2017):
Counter-ions that a name gives are not always drawn. Like-named read-outs stand apart in the source and are kept apart here.

Tests used:
[1] = tested on: painful diabetic neuropathy; assay: Changes in average daily pain scores, double-blind randomized crossover study vs placebo; assay type: in vivo, human
Protocol: (§1) Potential patients were recruited by advertising and screened via interview, review of health history and medications, physical examination, lab work, and ECG.
(§2) The average daily pain score and the worst daily pain scores were measured. Patients recorded their pain score four times daily on a scale of 0 to 10. Additionally, pain scores were measured using a Visual Analog Scale (VAS) during weekly visits to the study center.

[2] = tested on: patients with painful diabetic neuropathy; assay: Patient withdrawal because of side effects in the 3:1 D:L-methadone study; settings: terminated the study because of side effects (mostly nausea and vomiting)
Protocol: Patients were subjected to forceful weekly titration of doses from 15 mg the first week, to 30 mg the second week, and to 40 mg the third and fourth weeks.

[3] = Solubility of 75/25 D/L methadone HCl drug substance; assay type: physicochemical
Excerpt: General Properties of 75/25 D/L Methadone-HCl Included the Following Physical Characteristics: […]

[4] = tested on: painful diabetic neuropathy; assay: Changes in VAS scores (SF-MPQ), double-blind randomized crossover study vs placebo; assay type: in vivo, human
Protocol: as §1, §2
VAS is a measurement instrument that measures a characteristic or attitude that is believed to range across a continuum of values. For example, the amount of pain that a patient feels may range across a continuum from no pain to an extreme amount of pain. […] In order to capture this underlying continuum, VAS was devised, and in the present study, VAS was used as described here. (See e.g., D. Gould et al., J. Clin. Nursing, 10: 697-706 (2001)).
VAS was conducted by using a horizontal line, 100 mm in length, anchored by word descriptors at each end, as illustrated below. Patients marked on a line (as shown below) the point that best represented their perception of pain.
A VAS score was determined by measuring in millimeters from the left hand end of the line to the point that the patient marked.

[5] = tested on: neuropathic pain; settings: Lemberg et al. 2006; cited from earlier work
[6] = tested on: neuropathic pain; settings: cited from earlier work; for placebo-adjusted relief of average daily pain intensity: Morley
[7] = tested on: patients with neuropathic pain; settings: Morley study; cited from earlier work
[8] = tested on: neuropathic pain model; settings: intrathecal, rats; not reversed by naloxone; cited from earlier work
[9] = tested on: neuropathic pain; settings: small group of patients, high dose; cited from earlier work

CCC(=O)C(CC(C)N(C)C)(c1ccccc1)c1ccccc1 (racemic) [75:25 D:L-methadone, Mixture of 75% (6S)-6-(dimethylamino)-4,4-dipheylhepan-3-one hydrochloride and 25% (6R)-6-(dimethylamino)-4,4-dipheylhepan-3-one hydrochloride]
Change in average daily pain score, Difference in Means vs placebo (95% CI) ([1]; 15 mg): −0.84 (−1.64; −0.04) | Change in average daily pain score, Mean (SD) ([1]; 15 mg, scale of 0 to 10, two clinical sites combined): −0.88 (1.46) | Change in average daily pain score, Difference in Means vs placebo (95% CI) ([1]; 30 mg): −1.14 (−2.30; 0.02) | Change in average daily pain score, Mean (SD) ([1]; 30 mg): −1.41 (1.87) | Change in average daily pain score, Difference in Means vs placebo (95% CI) ([1]; 40 mg (1st Week)): −1.08 (−2.20; 0.03) | Change in average daily pain score, Mean (SD) ([1]; 40 mg (1st Week)): −1.57 (1.98) | Change in average daily pain score, Difference in Means vs placebo (95% CI) ([1]; 40 mg (2nd Week)): −1.17 (−2.28; −0.06) | Change in average daily pain score, Mean (SD) ([1]; 40 mg (2nd Week)): −1.73 (2.01) | Change in average daily pain score, Difference in Means vs placebo (95% CI) ([1]; 40 mg (Both Weeks)): −1.13 (−1.88; −0.38) | Change in average daily pain score, Mean (SD) ([1]; 40 mg (Both Weeks)): −1.65 (1.97) | Change in average daily pain score, Difference in Means vs placebo (95% CI) ([1]; 15-30 mg Combined): −0.99 (1.67; −0.31) | Change in average daily pain score, Mean (SD) ([1]; 15-30 mg Combined): −1.14 (1.67) | patient withdrawal rate [2]: 17% | Solubility ([3]; alcohols): readily soluble | Solubility ([3]; ether): practically insoluble | Solubility ([3]; methylene chloride): readily soluble | Solubility ([3]; water): readily soluble | Change in VAS score (SF-MPQ), median ([4]; 15 mg): −7.0 | Change in VAS score, difference in means vs placebo (95% CI) ([4]; 15 mg): −10.1 (−21.0; 0.9) | Change in VAS score (SF-MPQ), mean ([4]; 15 mg, VAS 100 mm line, primary efficacy population): −12.8 | Change in VAS score (SF-MPQ), mean ([4]; 30 mg): −14.9 | Change in VAS score (SF-MPQ), median ([4]; 30 mg): −8.0 | Change in VAS score, difference in means vs placebo (95% CI) ([4]; 30 mg): −6.3 (−17.4; 4.9) | Change in VAS score (SF-MPQ), mean ([4]; 40 mg (1st Week)): −19.5 | Change in VAS score (SF-MPQ), median ([4]; 40 mg (1st Week)): −13.0 | Change in VAS score, difference in means vs placebo (95% CI) ([4]; 40 mg (1st Week)): −10.5 (−19.6; −1.4) | Change in VAS score (SF-MPQ), mean ([4]; 40 mg (2nd Week)): −20.7 | Change in VAS score (SF-MPQ), median ([4]; 40 mg (2nd Week)): −10.0 | Change in VAS score, difference in means vs placebo (95% CI) ([4]; 40 mg (2nd Week)): −8.1 (−18.3; 2.2) | Change in VAS score (SF-MPQ), mean ([4]; 40 mg (Both Weeks)): −20.1 | Change in VAS score (SF-MPQ), median ([4]; 40 mg (Both Weeks)): −12.0 | Change in VAS score, difference in means vs placebo (95% CI) ([4]; 40 mg (Both Weeks)): −9.3 (−15.8; − 2.8) | Change in VAS score (SF-MPQ), mean ([4]; 15-30 mg (Combined), pooled): −13.9 | Change in VAS score (SF-MPQ), median ([4]; 15-30 mg (Combined), pooled): −8.0 | Change in VAS score, difference in means vs placebo (95% CI) ([4]; 15-30 mg (Combined), pooled): −8.1 (−15.6; −0.6) | placebo-adjusted relief of average daily pain intensity ([4]; lowest tested dose (15 mg) of the 3:1 mixture): −10.1 | placebo-adjusted relief of average daily pain intensity compared with 10 mg of racemic methadone ([4]; vs Morley 10 mg racemic methadone): 3 times better | placebo-adjusted relief of average daily pain intensity compared with 20 mg of racemic methadone ([4]; vs Morley 20 mg racemic methadone): 54 % better

CCC(=O)C(C[C@@H](C)N(C)C)(c1ccccc1)c1ccccc1 [L-methadone, (R)-(−)-methadone]
potency in neuropathic pain [5]: greater potency than other opioids

CCC(=O)C(CC(C)N(C)C)(c1ccccc1)c1ccccc1 (racemic) [racemic methadone, methadone]
placebo-adjusted relief of average daily pain intensity ([6]; 10 mg of racemic methadone): −3.20 | placebo-adjusted relief of average daily pain intensity ([6]; 20 mg of racemic methadone): −6.56 | analgesic effect in neuropathic pain ([6]; Morley et al. 2003): analgesic effect | patient withdrawal rate [7]: 37%

CCC(=O)C(C[C@H](C)N(C)C)(c1ccccc1)c1ccccc1 [D-methadone, (S)-(+)-methadone]
antinociception [8]: produced antinociception | potency in neuropathic pain [5]: inactive | analgesic response [9]: no analgesic response
